The experiment concerns the target T1, human Nav1.7 (Homo sapiens, UniProt Q15858).
T1 construct: expressed in transfected cells
Briefly: Assessment of Nav1.7 activity on PatchXpress (voltage dependence / slow inactivation parameters). As to conditions: compound at 10 μM, relative to 0.2% DMSO vehicle control; for hNav1.7: Reduction in current at 20 mV (normalized data) Delta Ratio: before/after 30 sec conditioning pulse at 20 mV; for hNav1.7: Shift in voltage dependence of inactivation (mV) Delta Vhalf: PatchXpress. It counts as cell-based. A digest of the protocol: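 HEK293F cells stably co-expressing hNav1.7 and β1 were recorded by automated patch clamp in TEA-based external solution (50 mM NaCl, pH 7.4) with CsF internal solution (pH 7.2). A variable conditioning prepulse inactivated channels, followed by a brief hyperpolarizing step and a depolarizing test pulse. Compounds at 10 μM were compared with 0.2% DMSO vehicle across four parameters.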

Structures are written as SMILES.

T1 sequence (Q15858 whole entry): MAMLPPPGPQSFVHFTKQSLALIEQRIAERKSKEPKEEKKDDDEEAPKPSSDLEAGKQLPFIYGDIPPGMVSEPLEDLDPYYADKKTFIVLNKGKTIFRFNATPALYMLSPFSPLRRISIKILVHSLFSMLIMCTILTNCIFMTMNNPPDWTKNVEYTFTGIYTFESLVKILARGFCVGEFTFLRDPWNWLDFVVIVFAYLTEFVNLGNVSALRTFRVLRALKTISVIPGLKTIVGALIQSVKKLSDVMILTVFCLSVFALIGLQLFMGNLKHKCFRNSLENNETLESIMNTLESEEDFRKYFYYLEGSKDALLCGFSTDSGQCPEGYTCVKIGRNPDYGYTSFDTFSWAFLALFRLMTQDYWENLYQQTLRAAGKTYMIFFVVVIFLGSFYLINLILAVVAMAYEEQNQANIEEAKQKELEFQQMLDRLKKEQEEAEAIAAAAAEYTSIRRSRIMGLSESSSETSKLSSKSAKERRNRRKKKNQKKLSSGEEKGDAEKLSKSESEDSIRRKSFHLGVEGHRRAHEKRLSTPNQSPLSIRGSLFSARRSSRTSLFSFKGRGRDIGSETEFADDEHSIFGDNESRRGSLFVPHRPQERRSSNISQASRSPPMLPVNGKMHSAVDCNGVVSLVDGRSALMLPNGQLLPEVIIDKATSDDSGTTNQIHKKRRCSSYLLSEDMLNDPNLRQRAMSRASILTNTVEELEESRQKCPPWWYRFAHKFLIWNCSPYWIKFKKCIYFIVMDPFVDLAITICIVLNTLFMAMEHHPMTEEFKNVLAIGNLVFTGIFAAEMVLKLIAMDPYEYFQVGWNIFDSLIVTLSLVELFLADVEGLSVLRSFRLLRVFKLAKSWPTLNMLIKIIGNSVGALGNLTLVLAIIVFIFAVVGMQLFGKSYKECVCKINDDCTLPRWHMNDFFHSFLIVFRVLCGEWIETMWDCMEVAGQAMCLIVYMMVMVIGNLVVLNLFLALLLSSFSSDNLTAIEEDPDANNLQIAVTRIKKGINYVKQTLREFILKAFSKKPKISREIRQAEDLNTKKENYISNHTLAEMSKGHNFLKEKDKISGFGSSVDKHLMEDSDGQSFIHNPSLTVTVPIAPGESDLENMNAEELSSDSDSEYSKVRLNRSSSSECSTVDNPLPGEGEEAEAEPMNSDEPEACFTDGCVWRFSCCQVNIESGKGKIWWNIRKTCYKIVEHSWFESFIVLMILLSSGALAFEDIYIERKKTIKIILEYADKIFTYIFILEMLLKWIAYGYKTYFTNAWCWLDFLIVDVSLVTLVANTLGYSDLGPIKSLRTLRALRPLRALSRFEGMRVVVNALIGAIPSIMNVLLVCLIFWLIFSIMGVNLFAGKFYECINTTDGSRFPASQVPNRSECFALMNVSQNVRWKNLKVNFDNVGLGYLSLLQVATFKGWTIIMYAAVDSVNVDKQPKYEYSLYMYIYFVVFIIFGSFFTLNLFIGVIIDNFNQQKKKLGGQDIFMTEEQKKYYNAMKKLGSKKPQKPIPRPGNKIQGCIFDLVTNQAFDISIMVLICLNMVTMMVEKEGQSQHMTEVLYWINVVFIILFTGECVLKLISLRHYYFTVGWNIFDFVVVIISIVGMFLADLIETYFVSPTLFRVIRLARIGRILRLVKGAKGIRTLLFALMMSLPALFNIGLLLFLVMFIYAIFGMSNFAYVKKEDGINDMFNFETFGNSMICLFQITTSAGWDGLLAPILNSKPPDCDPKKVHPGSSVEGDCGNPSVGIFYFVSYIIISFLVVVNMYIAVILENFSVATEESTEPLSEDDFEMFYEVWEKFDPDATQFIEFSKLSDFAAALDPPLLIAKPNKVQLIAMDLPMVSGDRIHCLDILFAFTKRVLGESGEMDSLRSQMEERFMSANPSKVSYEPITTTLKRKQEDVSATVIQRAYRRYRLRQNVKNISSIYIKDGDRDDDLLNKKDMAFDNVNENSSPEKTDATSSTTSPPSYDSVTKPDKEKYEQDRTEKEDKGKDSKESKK
T1 sequence (Q07699 19-218 partner): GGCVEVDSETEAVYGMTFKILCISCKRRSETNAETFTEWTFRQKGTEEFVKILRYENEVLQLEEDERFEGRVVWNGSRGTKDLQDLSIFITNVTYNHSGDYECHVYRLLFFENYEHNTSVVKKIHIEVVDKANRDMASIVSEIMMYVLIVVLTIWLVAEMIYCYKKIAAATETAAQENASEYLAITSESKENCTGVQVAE

Take `CN[C@H](CC(C)C)C(=O)NCCOc1cc(C(F)(F)F)cc(C(F)(F)F)c1` [Compound 13, (R)-N-(2-(3,5-bis(trifluoromethyl)phenoxy)ethyl)-4-methyl-2-(methylamino)pentanamide]: the “hNav1.7: Reduction in current at 20 mV (normalized data) Delta Ratio” value is −0.17, the “hNav1.7: Voltage dependence of activation (mV) VDEP” value is −5.90 mV, the “hNav1.7: Voltage dependence of fast inactivation (mV) VDEP” value is recorded as −4.00 mV and the “hNav1.7: Shift in voltage dependence of inactivation (mV) Delta Vhalf” value (“hNav1.7: Shift … (mV) Delta Vhalf” for short) is −23.80 mV.

For `C[C@@H](NC(=O)[C@H]1CCCN1)c1ccc(OCC(F)(F)F)cn1` [Compound 83, (R)-N-((R)-1-(5-(2,2,2-trifluoroethoxy)pyridin-2-yl)ethyl)pyrrolidine-2-carboxamide], the “hNav1.7: Reduction in current at 20 mV (normalized data) Delta Ratio” value is recorded as 0.01, the “hNav1.7: Voltage dependence of activation (mV) VDEP” value was −3.1 mV, the “hNav1.7: Voltage dependence of fast inactivation (mV) VDEP” value is given as −0.5 mV and the “hNav1.7: Shift … (mV) Delta Vhalf” value is on record as −1.5 mV.

In the case of `C[C@@H](NC(=O)CN1CCNCC1=O)c1ccc(OCC(F)(F)F)cn1` [Compound 81, (R)-2-(2-oxopiperazin-1-yl)-N-(1-(5-(2,2,2-trifluoroethoxy)pyridin-2-yl)ethyl)acetamide], the “hNav1.7: Reduction in current at 20 mV (normalized data) Delta Ratio” value is given as −0.02, the “hNav1.7: Voltage dependence of activation (mV) VDEP” value is −10.3 mV, the “hNav1.7: Voltage dependence of fast inactivation (mV) VDEP” value is given as −5 mV and the “hNav1.7: Shift … (mV) Delta Vhalf” value is −2.8 mV.

For `Cc1cccc(C)c1OCC(C)NC(=O)[C@@H]1CCCN1` (stereo partly drawn) [Compound 15, (2S)-N-(1-(2,6-dimethylphenoxy)propan-2-yl)pyrrolidine-2-carboxamide], the “hNav1.7: Reduction in current at 20 mV (normalized data) Delta Ratio” value is reported as −0.16, the “hNav1.7: Voltage dependence of activation (mV) VDEP” value is −6.00 mV, the “hNav1.7: Voltage dependence of fast inactivation (mV) VDEP” value is −4.90 mV and the “hNav1.7: Shift … (mV) Delta Vhalf” value is −20.60 mV.

Take `C[C@@H](NC(=O)[C@@H]1CCCN1)c1ccc(OCC(F)(F)F)cn1` [Compound 82, (S)-N-((R)-1-(5-(2,2,2-trifluoroethoxy)pyridin-2-yl)ethyl)pyrrolidine-2-carboxamide]: the “hNav1.7: Reduction in current at 20 mV (normalized data) Delta Ratio” value is reported as −0.02, the “hNav1.7: Voltage dependence of activation (mV) VDEP” value is reported as −5.6 mV, the “hNav1.7: Voltage dependence of fast inactivation (mV) VDEP” value is reported as −8.7 mV and the “hNav1.7: Shift … (mV) Delta Vhalf” value is on record as −2.5 mV.

For `O=C(CCc1nc2cc(C(F)(F)F)cc(C(F)(F)F)c2[nH]1)N1CCNCC1` [Compound 61, 3-(4,6-bis(trifluoromethyl)-1H-benzo[d]imidazol-2-yl)-1-(piperazin-1-yl)propan-1-one], the “hNav1.7: Reduction in current at 20 mV (normalized data) Delta Ratio” value was −0.19, the “hNav1.7: Voltage dependence of activation (mV) VDEP” value was −11.3 mV, the “hNav1.7: Voltage dependence of fast inactivation (mV) VDEP” value was −5.1 mV and the “hNav1.7: Shift … (mV) Delta Vhalf” value is recorded as −9.2 mV.

On to `NCC[C@@H]1Nc2c(cc(C(F)(F)F)cc2C(F)(F)F)NC1=O` [Compound 39, (S)-3-(2-aminoethyl)-5,7-bis(trifluoromethyl)-3,4-dihydroquinoxalin-2(1H)-one], for which the “hNav1.7: Reduction in current at 20 mV (normalized data) Delta Ratio” value is −0.08, the “hNav1.7: Voltage dependence of activation (mV) VDEP” value was −7.40 mV, the “hNav1.7: Voltage dependence of fast inactivation (mV) VDEP” value is listed as −3.10 mV and the “hNav1.7: Shift … (mV) Delta Vhalf” value was −4.90 mV.

Regarding `NC1(c2nc3cc(C(F)(F)F)cc(C(F)(F)F)c3[nH]2)Cc2ccccc2C1` [Compound 52, 2-(4,6-bis(trifluoromethyl)-1H-benzo[d]imidazol-2-yl)-2,3-dihydro-1H-inden-2-amine], the “hNav1.7: Reduction in current at 20 mV (normalized data) Delta Ratio” value is −0.28, the “hNav1.7: Voltage dependence of activation (mV) VDEP” value was −7.2 mV, the “hNav1.7: Voltage dependence of fast inactivation (mV) VDEP” value is reported as −8.2 mV and the “hNav1.7: Shift … (mV) Delta Vhalf” value is listed as −14.9 mV.

As to `N[C@H](Cc1cccc(C(F)(F)F)c1)C(=O)NCc1nc2ccc(Br)cc2[nH]1` [Compound 74, (R)-2-amino-N-((6-bromo-1H-benzo[d]imidazol-2-yl)methyl)-3-(3-(trifluoromethyl)phenyl)propanamide], the “hNav1.7: Reduction in current at 20 mV (normalized data) Delta Ratio” value is −0.07, the “hNav1.7: Voltage dependence of activation (mV) VDEP” value was −3.7 mV, the “hNav1.7: Voltage dependence of fast inactivation (mV) VDEP” value is −8.8 mV and the “hNav1.7: Shift … (mV) Delta Vhalf” value is −7.4 mV.

Consider `O=C(NCCOc1cc(F)cc(C(F)(F)F)c1)[C@@H]1CCCN1` [Compound 22, (S)-N-(2-(3-fluoro-5-(trifluoromethyl)phenoxy)ethyl) pyrrolidine-2-carboxamide], for which the “hNav1.7: Reduction in current at 20 mV (normalized data) Delta Ratio” value is 0.06, the “hNav1.7: Voltage dependence of activation (mV) VDEP” value is −6.50 mV, the “hNav1.7: Voltage dependence of fast inactivation (mV) VDEP” value is −1.80 mV and the “hNav1.7: Shift … (mV) Delta Vhalf” value is −7.00 mV.

On to `Cc1cccc(C)c1OCC(C)NC(=O)CN1CCNCC1=O` (centres unmarked) [Compound 35, N-(1-(2,6-dimethylphenoxy)propan-2-yl)-2-(2-oxopiperazin-1-yl)acetamide], for which the “hNav1.7: Reduction in current at 20 mV (normalized data) Delta Ratio” value was −0.06, the “hNav1.7: Voltage dependence of activation (mV) VDEP” value was −7.40 mV, the “hNav1.7: Voltage dependence of fast inactivation (mV) VDEP” value is recorded as −4.40 mV and the “hNav1.7: Shift … (mV) Delta Vhalf” value is listed as −3.00 mV.

Consider `FC(F)(F)c1cc(C(F)(F)F)c2nc([C@H]3CCCCN3)[nH]c2c1` [Compound 84, (R)-2-(piperidin-2-yl)-5,7-bis(trifluoromethyl)-1H-benzo[d]imidazole], for which the “hNav1.7: Reduction in current at 20 mV (normalized data) Delta Ratio” value is recorded as 0.02, the “hNav1.7: Voltage dependence of activation (mV) VDEP” value is −6.7 mV, the “hNav1.7: Voltage dependence of fast inactivation (mV) VDEP” value is −2.4 mV and the “hNav1.7: Shift … (mV) Delta Vhalf” value amounted to 0 mV.

With `FC(F)(F)c1cc(C(F)(F)F)c2[nH]c(C3NCc4ccccc43)nc2c1` (centres unmarked) [Compound 59, 2-(isoindolin-1-y)-4,6-bis(trifluoromethyl)-1H-benzo[d]imidazole], the “hNav1.7: Reduction in current at 20 mV (normalized data) Delta Ratio” value is listed as −0.2, the “hNav1.7: Voltage dependence of activation (mV) VDEP” value was −9 mV, the “hNav1.7: Voltage dependence of fast inactivation (mV) VDEP” value was −5.9 mV and the “hNav1.7: Shift … (mV) Delta Vhalf” value is −12.8 mV.

In the case of `N[C@@H](Cc1ccccc1)Cc1nc2cc(C(F)(F)F)cc(C(F)(F)F)c2[nH]1` [Compound 53, (S)-1-(4,6-bis(trifluoromethyl)-1H-benzo[d]imidazol-2-yl)-3-phenylpropan-2-amine], the “hNav1.7: Reduction in current at 20 mV (normalized data) Delta Ratio” value was −0.28, the “hNav1.7: Voltage dependence of activation (mV) VDEP” value was −8.2 mV, the “hNav1.7: Voltage dependence of fast inactivation (mV) VDEP” value is given as −3.9 mV and the “hNav1.7: Shift … (mV) Delta Vhalf” value is recorded as −7.2 mV.

Turning to `Cc1cccc(C)c1OCC(C)NC(=O)C(C)(C)CC(=O)N1CCNCC1` (centres unmarked) [Compound 33, N-(1-(2,6-dimethylphenoxy)propan-2-yl)-2,2-dimethyl-4-oxo-4-(piperazin-1-yl)butanamide], the “hNav1.7: Reduction in current at 20 mV (normalized data) Delta Ratio” value is reported as −0.07, the “hNav1.7: Voltage dependence of activation (mV) VDEP” value was −8.70 mV, the “hNav1.7: Voltage dependence of fast inactivation (mV) VDEP” value is −6.00 mV and the “hNav1.7: Shift … (mV) Delta Vhalf” value was −5.30 mV.

Regarding `NC1(C(=O)NCCOc2cc(C(F)(F)F)cc(C(F)(F)F)c2)CC1` [Compound 21, 1-amino-N-(2-(3,5-bis(trifluoromethyl)phenoxy)ethyl) cyclopropane-1-carboxamide], the “hNav1.7: Reduction in current at 20 mV (normalized data) Delta Ratio” value amounted to 0.00, the “hNav1.7: Voltage dependence of activation (mV) VDEP” value is listed as −5.20 mV, the “hNav1.7: Voltage dependence of fast inactivation (mV) VDEP” value is listed as −10.40 mV and the “hNav1.7: Shift … (mV) Delta Vhalf” value is given as −4.20 mV.

Turning to `CN(Cc1nc2c(C(F)(F)F)cc(C(F)(F)F)cc2[nH]1)C(=O)CNC(C)(C)C` [Compound 77, N-((4,6-bis(trifluoromethyl)-1H-benzo[d]imidazol-2-yl)methyl)-2-(tert-butylamino)-N-methylacetamide], the “hNav1.7: Reduction in current at 20 mV (normalized data) Delta Ratio” value is recorded as −0.06, the “hNav1.7: Voltage dependence of activation (mV) VDEP” value is given as −2.2 mV, the “hNav1.7: Voltage dependence of fast inactivation (mV) VDEP” value is recorded as −5 mV and the “hNav1.7: Shift … (mV) Delta Vhalf” value is on record as −0.3 mV.

Turning to `N[C@@H](c1ccc(F)cc1)c1nc2cc(C(F)(F)F)cc(C(F)(F)F)c2[nH]1` [Compound 58, (S)-(4,6-bis(trifluoromethyl)-1H-benzo[d]imidazol-2-yl)(4-fluorophenyl)methanamine], the “hNav1.7: Reduction in current at 20 mV (normalized data) Delta Ratio” value is reported as −0.21, the “hNav1.7: Voltage dependence of activation (mV) VDEP” value is reported as −4 mV, the “hNav1.7: Voltage dependence of fast inactivation (mV) VDEP” value is −4.9 mV and the “hNav1.7: Shift … (mV) Delta Vhalf” value is −8.6 mV.

As for `CC(C)(C)OC(=O)N[C@H](Cc1cccc(C(F)(F)F)c1)C(=O)NCc1nc2c(C(F)(F)F)cc(C(F)(F)F)cc2[nH]1` [Compound 73, tert-butyl (R)-(1-(((4,6-bis(trifluoromethyl)-1H-benzo[d]imidazol-2-yl)methyl)amino)-1-oxo-3-(3-(trifluoromethyl)phenyl)propan-2-yl)carbamate], the “hNav1.7: Reduction in current at 20 mV (normalized data) Delta Ratio” value is recorded as −0.07, the “hNav1.7: Voltage dependence of activation (mV) VDEP” value was −12.5 mV, the “hNav1.7: Voltage dependence of fast inactivation (mV) VDEP” value is given as −5.4 mV and the “hNav1.7: Shift … (mV) Delta Vhalf” value was −3.7 mV.

In the case of `CC(C)(c1nc2cc(F)cc(F)c2[nH]1)N1CCNCC1=O` [Compound 64, 1-(2-(4,6-difluoro-1H-benzo[d]imidazol-2-yl)propan-2-yl)piperazin-2-one], the “hNav1.7: Reduction in current at 20 mV (normalized data) Delta Ratio” value was −0.16, the “hNav1.7: Voltage dependence of activation (mV) VDEP” value was −7.1 mV, the “hNav1.7: Voltage dependence of fast inactivation (mV) VDEP” value is recorded as −5.9 mV and the “hNav1.7: Shift … (mV) Delta Vhalf” value was −5.4 mV.

Source of the values: patent US20170107203A1, “HETEROCYCLIC INHIBITORS OF THE SODIUM CHANNEL” (EPIRUS BIOPHARMACEUTICALS, INC., priority 2014, published 2017).
